Experiments:
[1] = tested on: carrageenan-induced pedal edema; assay: Carrageenan-induced pedal edema model; format: in vivo; conditions: Lewis rats, oral 1 or 10 mg/kg in olive oil 0.5 hour before carrageenan, paw volume after three hours
Protocol: Lewis rats (male; nine weeks age; body weight: about 250 g) were purchased from Seakku-Yoshitomi and the inflammation models such as carrageenan-induced pedal edema model (a model of rheumatoid arthritis) were prepared as follows whereby the tested substances were evaluated.
Thus, 4-tert-butylcyclopentenone ether or 4,5-di-tert-butylcyclopentenone ether in various concentrations by dissolving in olive oil (manufactured by Nacalai Tesque) was orally administered at the dose of 1 mg/10 ml/kg or 10 mg/10 ml/kg to rats which were fasted for 18 hours before initiation of the experiment.
After 0.5 hour from administration of these test drugs, 100 μl/rat of 1% suspension of carrageenan (manufactured by Wako) in a physiologically saline solution (manufactured by Otsuka Pharmaceutical) was injected to right paw to induce pedal edema. After three hours from the carrageenan injection, volume of right paw of the rat was measured by a pedal volume measuring device (manufactured by UGO BASILE). Incidentally, the measured value was expressed by calculating the increasing rate from the right paw volume of each rat measured before the carrageenan administration.

topoisomerase II = topoisomerase II (Homo sapiens, UniProt P11388); assay: Topoisomerase II inhibition, pBR322 DNA relaxation by agarose gel electrophoresis; format: biochemical
Protocol: (1) One μl of 0.25 μg/μl pBR322 DNA (manufactured by Takara Shuzo) was added to a mixture of 2 μl of topoisomerase II (manufactured by TopoGEN, 2 units/μl), 2 μl of a buffer with a ten-fold diluted concentration [0.5M Tris-HCl (pH 8.0), 1.2M KCl, 0.1M MgCl2, 5 mM adenosine triphosphate and 5 mM dithiothreitol], 2 μl of 0.1% bovine serum albumin (manufactured by Takara Shuzo), 11 μl of distilled water and 2 μl of distilled water (a control) or 4,5-di-tert-butylcyclopentenone ether prepared into various concentrations by water and made to react at 37° C. After the reaction for 30 minutes, the reaction was stopped by adding 2 μl aqueous solution of 1% sodium dodecylsulfate, 50% glycerol and 0.02% Bromophenol Blue.
The above reaction solution (20 μl) was applied to 1% agarose gel prepared from agarose L03 (manufactured by Takara Shuzo) and TAE buffer [40 mM Tris, 5mM sodium acetate and 1 mM disodium ethylenediaminetetraacetate (EDTA); adjusted to pH 7.8 with acetic acid] and electrophoresis was conducted in the TAE buffer. After the electrophoresis, the gel was dipped in an aqueous solution of 1 μg/ml ethidium bromide and irradiated with ultraviolet ray to observe the electrophoretic pattern of DNA.

[2] = set-up: species or system mice; conditions: mouse, in vivo, 300 mg/kg
[3] = tested on: Promyelocytic leukemia cell strain HL-60 (ATCC CCL-240); assay: Growth of HL-60 cells, MTT method with microscopic observation; format: cell-based, human; conditions: HL-60, at the concentration completely suppressing growth
Protocol: (1) A 1.22, 2.44, 4.88, 9.77, 19.5, 39.1, 78.1, 156, 313, 625, 1250, 2500, 5000 or 10000 μg/ml solution (10 μl) (in 70% aqueous solution of ethanol) of 4-benzylcyclopentenone ether, 5-benzylcyclopentenone ether or 4,5-dibenzylcyclopentenone ether or a 70% aqueous solution of ethanol as a control (10 μl) was added to each well of a 96-well microtiter plate followed by drying with air. Promyelocytic leukemia cell strain HL-60 (ATCC CCL-240) was suspended in an RPMI 1640 medium containing 10% of fetal calf serum to an extent of 1×10^5 cells/ml, each 100 μl thereof was poured into each well of the above microtiter plate and incubated at 37° C. for 48 hours in the presence of 5% of CO2. Incubation was continued for four hours more after addition of 10 μl of a solution (5 mg/ml) of 3-(4,5-dimethylthiazol-2-yl)-2,5-diphenyltetrazolium bromide (MTT; manufactured by Sigma) in a phosphate-buffered aqueous saline solution and then the state of growth of the cells was observed under a microscope. Further, 100 μl of 2-propanol containing 0.04N HCl was added thereto followed by well stirring and the absorbance at 590 nm was measured.
(2) Influence of 4-tert-butylcyclopentenone ether, 5-tert-butylcyclopentenone ether or 4,5-di-tert-butylcyclopentenone ether to the growth of HL-60 cells was measured by the same method as in Example 2-(1).

Chain of topoisomerase II (P11388 whole entry): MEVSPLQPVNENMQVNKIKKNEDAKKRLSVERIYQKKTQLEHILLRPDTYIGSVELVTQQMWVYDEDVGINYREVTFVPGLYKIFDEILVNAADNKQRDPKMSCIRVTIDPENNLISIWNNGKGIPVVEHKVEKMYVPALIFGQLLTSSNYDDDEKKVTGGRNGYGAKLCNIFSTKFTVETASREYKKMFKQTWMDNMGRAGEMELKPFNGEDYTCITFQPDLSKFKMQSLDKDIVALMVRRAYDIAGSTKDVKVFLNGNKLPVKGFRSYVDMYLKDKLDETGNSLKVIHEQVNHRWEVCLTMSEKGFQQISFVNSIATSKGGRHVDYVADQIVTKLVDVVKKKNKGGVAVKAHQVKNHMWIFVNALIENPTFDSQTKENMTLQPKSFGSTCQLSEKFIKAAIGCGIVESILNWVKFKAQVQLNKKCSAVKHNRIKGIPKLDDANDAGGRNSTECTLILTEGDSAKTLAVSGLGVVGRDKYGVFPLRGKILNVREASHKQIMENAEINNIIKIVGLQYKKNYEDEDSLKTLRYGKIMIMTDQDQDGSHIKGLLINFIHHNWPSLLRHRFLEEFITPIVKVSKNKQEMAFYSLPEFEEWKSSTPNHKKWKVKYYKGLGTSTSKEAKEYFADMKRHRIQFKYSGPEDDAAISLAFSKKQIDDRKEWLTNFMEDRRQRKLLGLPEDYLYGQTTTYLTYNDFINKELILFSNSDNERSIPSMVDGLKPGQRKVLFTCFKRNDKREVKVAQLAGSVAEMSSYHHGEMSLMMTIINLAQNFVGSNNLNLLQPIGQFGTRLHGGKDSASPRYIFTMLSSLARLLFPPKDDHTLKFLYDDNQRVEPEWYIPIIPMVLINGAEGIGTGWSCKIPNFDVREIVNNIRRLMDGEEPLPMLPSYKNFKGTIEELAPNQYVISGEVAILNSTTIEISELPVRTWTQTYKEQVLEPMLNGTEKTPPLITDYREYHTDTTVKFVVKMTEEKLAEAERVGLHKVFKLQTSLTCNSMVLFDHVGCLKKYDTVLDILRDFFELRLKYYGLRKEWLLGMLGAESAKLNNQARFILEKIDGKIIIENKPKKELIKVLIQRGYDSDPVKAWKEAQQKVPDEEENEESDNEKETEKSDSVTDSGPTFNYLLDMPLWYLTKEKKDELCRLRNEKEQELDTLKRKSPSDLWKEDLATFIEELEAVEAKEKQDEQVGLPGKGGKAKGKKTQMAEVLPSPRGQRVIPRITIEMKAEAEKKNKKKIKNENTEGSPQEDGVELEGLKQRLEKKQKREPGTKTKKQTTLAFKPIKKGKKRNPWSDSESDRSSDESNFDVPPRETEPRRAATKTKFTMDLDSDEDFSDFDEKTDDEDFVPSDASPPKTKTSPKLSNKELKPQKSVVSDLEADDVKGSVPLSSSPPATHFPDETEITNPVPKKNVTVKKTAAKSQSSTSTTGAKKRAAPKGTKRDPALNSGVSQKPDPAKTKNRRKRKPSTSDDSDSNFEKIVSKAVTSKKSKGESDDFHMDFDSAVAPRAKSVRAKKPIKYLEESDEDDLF

Row | SMILES | suppressing action to edema induced by carrageenan (increasing rate of pedal edema) [1] | death after single oral administration [2] | formation of apoptic body [3] | further results
1 | CC(C)(C)O[C@@H]1C(=O)C=C[C@H]1OC(C)(C)C (relative stereo) [4,5-di-tert-butylcyclopentenone ether] | showed an suppressing action to edema | no dead case was noted |  | superhelix DNA remaining (topoisomerase II; 250 μM in the reaction solution): the superhelix DNA remained to an medium extent; superhelix DNA remaining (topoisomerase II; 500 μM in the reaction solution): most of the superhelix DNA remained; superhelix DNA remaining (topoisomerase II; 1000 μM in the reaction solution): the superhelix DNA did not decrease at all; concentration in the reaction solution showing topoisomerase suppressing activity (topoisomerase II; pBR322 DNA, 37° C., 30 minutes): not less than 250 μM
2 | O=C1C=C[C@@H](OCc2ccccc2)[C@@H]1OCc1ccccc1 (relative stereo) [4,5-dibenzylcyclopentenone ether] |  |  | Formation of apoptic body was noted | 
3 | O=C1C=C[C@@H](OCc2ccccc2)[C@@H]1O (relative stereo) [4-benzylcyclopentenone ether] |  |  | Formation of apoptic body was noted | 
4 | CC(C)(C)O[C@@H]1C=CC(=O)[C@H]1O (relative stereo) [4-tert-butylcyclopentenone ether] | showed an suppressing action to edema | no dead case was noted |  | 
5 | O=C1C=C[C@@H](O)[C@@H]1OCc1ccccc1 (relative stereo) [5-benzylcyclopentenone ether] |  |  | Formation of apoptic body was noted | 
